Laboratory results reported in PubChem BioAssay (NCI).
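Tested at 5 concentrations; 48 h exposure; 96-well plates; endpoints linearly interpolated, else capped at highest concentration. Abbreviation: GI50, concentration required for 50% inhibition of growth. TGI marks complete inhibition of growth.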

Key:
Experiment in all cases: DTP human tumour cell line panel, 48 h
ACHN renal = test system: ACHN renal
CAKI-1 renal = test system: CAKI-1 renal
HOP-62 NSCLC = test system: HOP-62 NSCLC
NCI-H23 lung = test system: NCI-H23 lung
NCI/ADR-RES ovarian = test system: NCI/ADR-RES ovarian
SK-MEL-28 melanoma = test system: SK-MEL-28 melanoma
TK-10 renal = test system: TK-10 renal
DMS 114 small cell lung = test system: DMS 114 small cell lung
DMS 273 small cell lung = test system: DMS 273 small cell lung
KM20L2 colon = test system: KM20L2 colon
SNB-75 CNS = test system: SNB-75 CNS
SNB-78 CNS = test system: SNB-78 CNS
XF 498 CNS = test system: XF 498 CNS

Row | Structure (SMILES) | TGI (ACHN renal) | TGI (CAKI-1 renal) | TGI (HOP-62 NSCLC) | TGI (NCI-H23 lung) | TGI (NCI/ADR-RES ovarian) | TGI (SK-MEL-28 melanoma) | TGI (TK-10 renal) | TGI (DMS 114 small cell lung) | TGI (DMS 273 small cell lung) | TGI (KM20L2 colon) | TGI (SNB-75 CNS) | TGI (SNB-78 CNS) | TGI (XF 498 CNS) | GI50 (DMS 114 small cell lung) | GI50 (DMS 273 small cell lung) | GI50 (HOP-62 NSCLC) | GI50 (NCI-H23 lung) | GI50 (SK-MEL-28 melanoma) | GI50 (SNB-78 CNS)
1 | OCCNCCN1CCN(CCCN2c3ccccc3Sc3ccc(C(F)(F)F)cc32)CC1 | 43.2 µM | > 100 µM | 38.1 µM | 51 µM | 54.6 µM | 39.5 µM | 37.2 µM |  |  |  |  |  |  |  |  |  |  |  | 
2 | CC(=O)Oc1cc2c(cc1OC(C)=O)OCC(c1ccccc1)C2 (configuration not stated) |  | 39.2 µM | 54.3 µM | 77.6 µM | 134 µM | 53.1 µM |  | 32.3 µM | 102 µM | 61.1 µM | 26.6 µM | 111 µM | 25.3 µM |  |  |  |  |  | 
3 | CCCNC(=O)C(C)C1CCC2(C)C=CC(=O)C(C)=C2C1O (configuration not stated) |  | > 100 µM | > 100 µM | > 100 µM | > 100 µM | > 100 µM |  | > 100 µM | > 100 µM | > 100 µM | > 100 µM |  | > 100 µM |  |  |  |  |  | 
4 | N#C[C@H](OC1OC(COC2OC(CO)C(O)C(O)C2O)C(O)C(O)C1O)c1ccccc1 (some centres not stated) |  | > 250 µM | > 250 µM | > 250 µM | > 250 µM | > 250 µM |  | > 250 µM | > 250 µM | > 250 µM | > 250 µM | > 250 µM | > 25 µM |  |  |  |  |  | 
5 | CN(C)CCCN1c2ccccc2Sc2ccc3ccccc3c21 | 20.9 µM | 18.1 µM | 24.8 µM | 28.2 µM | 22.5 µM | 4.26 µM | 17.7 µM |  |  |  |  |  |  |  |  |  |  |  | 
6 | O=C(CCl)NNC1=Nc2ccc(Cl)cc2SC1 |  |  | 31.8 µM | 6.27 µM | 3.79 µM | 3.92 µM |  | 3.86 µM | 8.29 µM | 9.18 µM | 5.14 µM | 4.51 µM | 3.92 µM |  |  |  |  |  | 
7 | O=C1OC2(CC1C1(O)C3CC4CC(C3)CC1C4)C1CC3CC(C1)CC2C3 (configuration not stated) | > 100 µM |  |  | > 100 µM |  | > 100 µM | > 100 µM | > 100 µM | > 100 µM |  | > 100 µM | > 100 µM | > 100 µM |  |  |  |  |  | 
8 | O=C(O)c1cc2c(ncc3c(=O)n(-c4ccccc4)[nH]c32)s1 | > 100 µM | > 100 µM | > 100 µM | > 100 µM |  | > 100 µM | > 100 µM | > 100 µM | > 100 µM | > 100 µM |  |  | > 100 µM |  |  |  |  |  | 
9 | Cc1ccc(C2OC(COCc3ccc(Cl)cc3)C(OCc3ccc(Cl)cc3)C2O)cc1 (configuration not stated) | 41.8 µM | 38.3 µM |  | 40.3 µM |  | > 100 µM | 29.7 µM | 22.2 µM | 18.9 µM | 56.1 µM |  | 29.6 µM | 22.6 µM |  |  |  |  |  | 
10 | CCCc1c(-c2ccccc2)[nH]c2ccccc2c1=O | > 100 µM |  | > 100 µM | > 100 µM |  | > 100 µM | > 100 µM |  |  |  |  |  |  |  |  |  |  |  | 
11 | Cn1c(=O)c2[nH]c(CCNC(=O)c3ccccc3)nc2n(C)c1=O | > 100 µM | > 100 µM | > 100 µM | > 100 µM | > 100 µM | > 100 µM | > 100 µM |  |  |  | > 100 µM |  |  |  |  |  |  |  | 
12 | CCN(CC)c1ccc2cc(C(=O)Nc3ccc4[nH]c(C(=O)N5C[C@@H](CCl)c6c5cc(OC(=O)Nc5ccccc5)c5[nH]cc(C)c65)cc4c3)oc2c1 |  | 9.11e-05 µM |  | > 1000 µM |  | > 1000 µM |  | > 1000 µM |  | > 1000 µM | > 1000 µM | > 1000 µM |  | 254 µM | 70.4 µM | 104 µM | 230 µM | 401 µM | 83.7 µM
13 | COc1nc(=O)n(COC(CO)CN2C(=O)c3ccccc3C2=O)cc1Cc1cccc(OCc2ccccc2)c1 (configuration not stated) | 59.8 µM |  |  | > 100 µM |  | 36.2 µM | > 100 µM | 59.1 µM | 45.4 µM | 55.7 µM | 46.2 µM | > 100 µM |  |  |  |  |  |  | 
14 | O=c1ssc(=Nc2ccccc2)n1-c1ccccc1 | 31.1 µM |  | 46.5 µM | 50.2 µM | 68.2 µM | > 100 µM | > 100 µM |  |  |  | > 100 µM |  |  |  |  |  |  |  | 
15 | O=C(Nc1nc2ccc([N+](=O)[O-])cc2s1)C(=O)C(C(=O)c1ccccc1F)C1OC(=O)c2ccccc21 (configuration not stated) | > 100 µM | 98.5 µM | > 100 µM | > 100 µM |  | > 100 µM | > 100 µM | 87.3 µM | > 100 µM | > 100 µM | 74.5 µM | > 100 µM | > 100 µM |  |  |  |  |  | 
16 | Nc1ccn(C2C=C(CO)C(O)C2O)c(=O)c1 (configuration not stated) |  | > 625 µM | > 625 µM |  | > 625 µM |  |  | > 625 µM | > 625 µM | > 625 µM | > 625 µM | > 625 µM |  |  |  |  |  |  | 
